Test results: patent US6242199A, “Assays for growth hormone secretagogue receptors” (Merck & Co., Inc., priority 1998, dated 2001)
pKd: −log10 of the molar value.

Assays:
swine Type II GHSR = experiment: Aequorin bioluminescence assay in Xenopus oocytes, swine Type II GHSR; assay type: cell-based; conditions: swine Type II-derived cRNA truncated in TM-6
Description: (§1) Xenopus laevis oocytes were isolated and injected using standard methods previously described by Arena, et. al. 1991, Mol. Pharmacol. 40, 368-374, which is hereby incorporated by reference. Adult female Xenopus Laevis frogs (purchased from Xenopus One, Ann Arbor, Mich.) were anesthetized with 0.17% tricaine methanesulfonate and the ovaries were surgically removed and placed in a 60 mm culture dish (Falcon) containing OR-2 medium without calcium (82.5 mM NaCl, 2 mM KCl, 2.5 mM sodium pyruvate, 1 mM MgCl2, 100 μ/ml penicillin, 1 mg/ml streptomycin, 5 mM HEPES, pH=7.5; ND-96 from Specialty Media, NJ). Ovarian lobes were broken open, rinsed several times, and oocytes were released from their sacs by collagenase A digestion (Boehringer-Mannheim; 0.2% for 2-3 hours at 18° C.) in calcium-free OR-2. […]
(§2) The ABA requires injection of library pool cRNA (25 ng/egg for pool sizes of 500 to 10,000) with aequorin cRNA (2 ng/egg) supplemented with the G-protein alpha subunit Gα11 (2 ng/egg). […] Polymerase chain reaction (PCR) was utilized to generate a DNA fragment corresponding to the open reading frame (ORF) of the aequorin cDNA with an optimized Kosak translational initiation sequence (Inouye, S. et. al., 1985, Proc. Natl. Acad. Sci. USA 82:3154-3158). […]

human Type II GHSR = experiment: Aequorin bioluminescence assay in Xenopus oocytes, human Type II GHSR; assay type: cell-based; conditions: human Type II-derived cRNA truncated in TM-6
Description: as §1, §2

[1] = target: T1, swine growth hormone secretagogue receptor (Type I, clone 7-3) (Sus scrofa, UniProt Q95254); experiment: [35S]-Compound A binding to COS-7 cell membranes transfected with swine GHSR clone 7-3
T1 construct: translation of the longest ORF encoded in clone 7-3 encodes a protein of 353 amino acids; expressed in transfected cells; host or cells: COS-7 (transient, Lipofectamine)
T1 sequence (Q95254 14-366): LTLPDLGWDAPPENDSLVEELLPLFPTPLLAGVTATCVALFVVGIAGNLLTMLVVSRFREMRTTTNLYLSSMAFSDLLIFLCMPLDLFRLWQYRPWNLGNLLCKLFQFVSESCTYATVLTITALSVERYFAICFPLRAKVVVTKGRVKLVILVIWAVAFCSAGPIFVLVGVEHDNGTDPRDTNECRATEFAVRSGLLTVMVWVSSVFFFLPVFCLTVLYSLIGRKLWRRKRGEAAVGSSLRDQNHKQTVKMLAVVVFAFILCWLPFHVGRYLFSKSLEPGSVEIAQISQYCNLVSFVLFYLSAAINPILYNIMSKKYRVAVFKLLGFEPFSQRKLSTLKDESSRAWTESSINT
Description: Mammalian cells (COS-7) were transfected with GHSR expression plasmids using Lipofectamine (GIBCO-BRL; Hawley-Nelson, 1993, Focus 15:73). Transfections were performed in 60 mm dishes on 80% confluent cells (approximately 4×10^5 cells) with 8 μg of Lipofectamine and 32 μg of GHSR plasmid DNA.
Binding of [^35 S]-Compound A to swine pituitary membranes and crude membranes prepared from COS-7 cells transfected with GHSR expression plasmids was conducted. Crude cell membranes from COS-7 transfectants were prepared on ice, 48 hrs. post-transfection. Each 60 mm dish was washed twice with 3 ml of PBS, once with 1 ml homogenization buffer (50 mM Tris-HCl [pH 7.4], 5 mM MgCl2, 2.5 mM EDTA, 30 μg/ml bacitracin). 0.5 ml of homogenization buffer was added to each dish, cells were removed by scraping and then homogenized using a Polytron device (Brinkmann, Syosset, N.Y.; 3 bursts of 10 sec. at setting 4). The homogenate was then centrifuged for 20 min. at 11,000×g at 0° C. and the resulting crude membrane pellet (chiefly containing cell membranes and nuclei) was resuspended in homogenization buffer supplemented with 0.06% BSA (0.1 ml/60 mm dish) and kept on ice. Binding reactions were performed at 20° C. for 1 hr. in a total volume of 0.5 ml containing: 0.1 ml of membrane suspension, 10 μl of [^35 S]-Compound A (0.05 to 1 nM; specific activity approximately 900 Ci/mmol), 10 μl of competing drug and 380-390 μl of homogenization buffer. Bound radioligand was separated by rapid vacuum filtration (Brandel 48-well cell harvester) through GF/C filters pretreated for 1 hr. with 0.5% polyethylenimine. After application of the membrane suspension to the filter, the filters were washed 3 times with 3 ml each of ice cold 50 mM Tris-HCl [pH 7.4], 10 mM MgCl2, 2.5 mM EDTA and 0.015% Triton X-100, and the bound radioactivity on the filers was quantitated by scintillation counting. Specific binding (>90% of total) is defined as the difference between total binding and non-specific binding conducted in the presence of 50 nM unlabeled Compound A.

inhibition at 0.05 µM ([1]; 1 h, 50 nM unlabeled Compound A, read-out: specific binding displaced by unlabeled Compound A): > 90%
saturable binding, Bmax ([1]; clone 7-3 expressed transiently in COS-7 cells): ~ 80 fmol/mg protein
pKd ([1]; clone 7-3 expressed transiently in COS-7 cells, read-out: high affinity binding, KD): ~9.70
specific binding of total ([1]; nonspecific in presence of 50 nM unlabeled Compound A): > 90%
SMILES: CC(C)(N)C(=O)N[C@H](COCc1ccccc1)C(=O)N1CCC2(CC1)CN(S(C)(=O)=O)c1ccccc12 [Compound A, (N-[1(R)-[1,2-dihydro-1-methanesulfonlylspiro[3H-indole-3,4'-piperidin]-1'-yl)carbonyl]-2-(phenylmethyloxy)-ethyl]-2-amino-2-methyl-propanamide]
response (in words) (swine Type II GHSR): failed to give a response
response (in words) (human Type II GHSR): failed to give a response
